Tests used:
C. suis merozoites = test: Merozoite replication (growth) inhibition in infected IPEC-1 cultures, free merozoites counted 9 dpi; type: cell-based, Cystoisospora suis; settings: 400 nM once at 2 dpi; vs DMSO-only and no-treatment controls
Procedure: The laboratory strain C. suis Wien I ([Joachim and Mundt, 2011]), was maintained by passage in suckling piglets every 3–6 months and infectivity in vivo was assessed regularly at the Institute of Parasitology, University of Veterinary Medicine, Vienna. Oocysts were purified from collected feces, brought to sporulation and stored as described elsewhere ([Worliczek et al., 2013]). For in vitro studies, sporozoites were excysted ([Worliczek et al., 2013]), enumerated with a hemocytometer and used immediately for infection of semi-permanent intestinal porcine epithelial cells (IPEC-1). For in vivo studies, sporulated oocysts were washed with tap water and enumerated prior to infection of piglets.
IPEC-1 cells were maintained in culture medium at 37 °C and 5% CO2 (DHEM/HAM12 supplemented with 5% fetal calf serum and penicillin/streptomycin; Gibco via Thermo Fisher, Vienna, Austria). Cells (4 × 10^4) were used to seed 24-well plates and grown to confluence. All BKI compounds were stored as 20 mM stock solutions in 100% dimethyl sulfoxide (DMSO) at −20 °C. Cell viability in the presence of DMSO and BKIs was determined by colorimetric cell proliferation (WST-1) assays ([Shrestha et al., 2019]). In addition IPEC-1 cells were infected with serial dilutions of C. suis sporozoites, obtained after excystation to evaluate the growth curves of merozoites during 5–9 days of cultivation. To determine the effect of BKI 1369 on parasite replication, sporozoites (5 × 10^2) were added to each well one day after seeding of host cells and incubated with different concentrations of BKI 1369 at 40 °C for various time periods or a DMSO control, in triplicate.
In order to test whether BKI 1369 affects initial host cell invasion by C. suis, freshly excysted sporozoites were pre-incubated with BKI 1369 or DMSO for 6 h at 37 °C. Subsequently, sporozoites were washed with medium and used for infection of cell monolayers (5 × 10^2/well), in triplicate. Readout for both growth (merozoite replication) and invasion-inhibition experiments was microscopical evaluation by counting free merozoites 9 days post-infection (dpi) from culture supernatants. Supernatants were collected and free merozoites were counted in pooled samples at 9 dpi from quadruplicate wells in C-Chip disposable hemocytometers (NanoEnTek/Roth Lactan, Graz, Austria). All assays included DMSO and no-treatment controls in quadruplicate.
Statistical calculations for in vivo trials were performed with RStudio version 1.1.453 (RStudio Team, 2018), descriptive statistics with Microsoft Excel 2010 (Microsoft Inc., Vienna, Austria) and GraphPad Prism version 5.04 for Windows (GraphPad Software, San Diego, California USA). Differences in clinical and parasitological parameters between groups were analyzed with ANOVA in the case of normal distribution and variance homogeneity of the data, or a Kruskal-Wallis rank sum test if this was not the case. In the event of significance for the omnibus tests, parametric or non-parametric post-hoc tests for multiple comparisons were performed (according to Tukey and Conover, respectively), with P-value adjustment after Bonferroni. In vitro assays were evaluated by t-tests with significance reported at P < 0.05. For testing of efficacy in vitro, the percentage of growth/invasion inhibition was calculated as follows: % inhibition = (1−No. of merozoites counted at 9 dpi in BKI 1369 treated culture /No. of merozoites counted at 9 dpi in DMSO-only treated culture)x100

[1] = Fecal drug kinetics: BKI concentrations in pooled feces by LC-MS/MS; type: in vivo, piglets
Procedure: Additionally, to determine exposure to BKI 1369 and its metabolites, BKI 1318 and BKI 1817, pooled fecal samples per group were collected before treatment (−24 h), 2, 24 and 48 h after treatment and at the end of the study (SD 29; experiment I). Approximately 1 g of feces was soaked overnight in 3 ml phosphate buffered saline (PBS, pH 7.4). The following day, 12 ml of acetonitrile containing 100 μM propanolol as an internal standard was added and the mixture was thoroughly vortexed and centrifuged at 1000×g for 30 min. Clear supernatant was then transferred to Eppendorf tubes and concentrated in a miVac® Duo Concentrator (SP Scientific, Pennsylvania, USA) at 35 °C. Control/blank samples spiked with known amounts of target analyte were processed in tandem to provide a standard curve. The concentrated samples were shipped to the University of Washington and were stored at −20 °C until analysis by liquid chromatography-tandem mass spectrometry (LC-MS/MS) to determine fecal pharmacokinetics. All LC-MS/MS analyses were carried out on a Waters Acquity UPLC coupled with a Xevo TQS Micro and analyzed using MassLynx software (Waters Corporation, Milford, MA, USA). Extraction and LC-MS/MS conditions are described in detail in the Supplementary File S1.
Tissue and feces from vehicle control treated piglets were used as blanks or standards. Calibration curves for BKI 1369, BKI 1318, and BKI 1817 were prepared by adding 2 μL BKI in dimethylsulfoxide (DMSO) to 18 μL tissue or feces controls to generate nominal concentrations of 0.004, 0.008, 0.02, 0.04, 0.08, 0.2, 0.4, 0.8, 2, 5, 10, and 20 μM. Calibration curves were generated separately for each tissue type and feces.
5 μL of tissue homogenate curves and samples were added to tubes that contained 95 μL of 80:20 acetonitrile: water. As an internal standard, propranolol was added to each sample to a final concentration of 20 nM. Samples were dried to completion using a miVac Duo Concentrator (SP Scientific, Pennsylvania, USA) at 35 °C. Sample processing for feces was similar but utilized a slightly different process to concentrate the sample as explained in the methods. Dried Samples were sealed and shipped to the University of Washington for LC-MS/MS analysis.

## CN1CCC(Cn2nc(-c3ccc4nc(O)ccc4c3)c3c(N)ncnc32)CC1 [BKI 1817]
C. suis merozoites
  Decrease of total merozoite counts: 69.6%
[1]; Group A (20 mg BKI 1369/kg BW; 0 dpi), SD 2, −24 h (before treatment)
  Concentration in pooled fecal samples: 0.0 µM
[1]; Group A (20 mg BKI 1369/kg BW; 0 dpi), SD 3, 2 h post first-dose
  Concentration in pooled fecal samples: 0.0 µM
[1]; Group A (20 mg BKI 1369/kg BW; 0 dpi), SD 4, 24 h post first-dose
  Concentration in pooled fecal samples: 54.0 µM
[1]; Group A (20 mg BKI 1369/kg BW; 0 dpi), SD 5, 48 h post first-dose
  Concentration in pooled fecal samples: 60.8 µM
[1]; Group A (20 mg BKI 1369/kg BW; 0 dpi), SD 29, 624 h post first-dose
  Concentration in pooled fecal samples: 0.0 µM
[1]; Group A: single treatment 20 mg BKI 1369/kg on SD 3, pooled feces
  Cmax: 60.8 µM
[1]; Group A: single treatment 20 mg BKI 1369/kg on SD 3, pooled feces, post dose
  Fecal Tmax: 48 h
[1]; Group B (20 mg BKI 1369/kg BW; 2 dpi), SD 4, −24 h (before treatment)
  Concentration in pooled fecal samples: 0.0 µM
[1]; Group B (20 mg BKI 1369/kg BW; 2 dpi), SD 5, 2 h post first-dose
  Concentration in pooled fecal samples: 0.0 µM
[1]; Group B (20 mg BKI 1369/kg BW; 2 dpi), SD 6, 24 h post first-dose
  Concentration in pooled fecal samples: 0.8 µM
[1]; Group B (20 mg BKI 1369/kg BW; 2 dpi), SD 7, 48 h post first-dose
  Concentration in pooled fecal samples: 53.5 µM
[1]; Group B (20 mg BKI 1369/kg BW; 2 dpi), SD 29, 576 h post first-dose
  Concentration in pooled fecal samples: 0.0 µM
[1]; Group B: single treatment 20 mg BKI 1369/kg on SD 5, pooled feces, post-dose
  Fecal Tmax: 48 h
[1]; Group C (20 mg BKI 1369/kg BW; 2 and 4 dpi), SD 4, −24 h (before treatment)
  Concentration in pooled fecal samples: 0.0 µM
[1]; Group C (20 mg BKI 1369/kg BW; 2 and 4 dpi), SD 5, 2 h post first-dose
  Concentration in pooled fecal samples: 0.0 µM
[1]; Group C (20 mg BKI 1369/kg BW; 2 and 4 dpi), SD 6, 24 h post first-dose
  Concentration in pooled fecal samples: 130.0 µM
[1]; Group C (20 mg BKI 1369/kg BW; 2 and 4 dpi), SD 7, 48/2 h post 2nd dose
  Concentration in pooled fecal samples: 280.8 µM
[1]; Group C (20 mg BKI 1369/kg BW; 2 and 4 dpi), SD 8, 72/24 h post 2nd dose
  Concentration in pooled fecal samples: 331.6 µM
[1]; Group C (20 mg BKI 1369/kg BW; 2 and 4 dpi), SD 9, 96/48 h post 2nd dose
  Concentration in pooled fecal samples: 537.0 µM
[1]; Group C: 20 mg BKI 1369/kg on SD 5 and SD 7, pooled feces
  Cmax: 537 µM
[1]; Group C: 20 mg BKI 1369/kg on SD 5 and SD 7, pooled feces, post first-dose
  Fecal Tmax: 96 h
[1]; after oral BKI 1369, piglets
  Excretion via the feces (in words): major metabolite excreted in the feces

Reference: paper PMC7442133, “Reduced treatment frequencies with bumped kinase inhibitor 1369 are effective against porcine cystoisosporosis” (International Journal for Parasitology: Drugs and Drug …, 2020)
